Source: ChEMBL document CHEMBL1240357, “Method for screening compounds that influence virulence gene expression in Staphylococcus aureus” (Antimicrob Agents Chemother, 2010)
Activity calls are given as the source filed them. No cut-off for these calls is given here.

What was measured:
Type in all cases: functional, organism-based
Staphylococcus aureus [1] = assay: Induction of spa virulent gene expression in Staphylococcus aureus PC203 containing spa::lacZ assessed as color chage at 150 ug/ml at 37 degC in presence of chromogenic beta-galactosidase substrate and 1 to 50 % glucose solution
Staphylococcus aureus [2] = assay: Induction of hla virulent gene expression in Staphylococcus aureus PC322 containing hla::lacZ assessed as color chage at 150 ug/ml at 37 degC in presence of chromogenic beta-galactosidase substrate and 1 to 50 % glucose solution
Staphylococcus aureus [3] = assay: Induction of hla virulent gene expression in Staphylococcus aureus PC322 containing hla::lacZ assessed as color chage at 150 ug/ml at 37 degC in presence of chromogenic beta-galactosidase substrate
Staphylococcus aureus [4] = assay: Induction of spa virulent gene expression in Staphylococcus aureus PC203 containing spa::lacZ assessed as color chage at 150 ug/ml at 37 degC in presence of chromogenic beta-galactosidase substrate
Staphylococcus aureus [5] = assay: Induction of hla virulent gene expression in Staphylococcus aureus PC322 containing hla::lacZ assessed as color chage at 5 ug/ml at 37 degC in presence of chromogenic beta-galactosidase substrate and 1 to 50 % glucose solution
Staphylococcus aureus [6] = assay: Induction of hla virulent gene expression in Staphylococcus aureus PC322 containing hla::lacZ assessed as color chage at 5 ug/ml at 37 degC in presence of chromogenic beta-galactosidase substrate
Staphylococcus aureus [7] = assay: Induction of spa virulent gene expression in Staphylococcus aureus PC203 containing spa::lacZ assessed as color chage at 5 ug/ml at 37 degC in presence of chromogenic beta-galactosidase substrate and 1 to 50 % glucose solution
Staphylococcus aureus [8] = assay: Induction of spa virulent gene expression in Staphylococcus aureus PC203 containing spa::lacZ assessed as color chage at 5 ug/ml at 37 degC in presence of chromogenic beta-galactosidase substrate

SMILES	Activity (Staphylococcus aureus [1])	Activity (Staphylococcus aureus [2])	Activity (Staphylococcus aureus [3])	Activity (Staphylococcus aureus [4])	Activity (Staphylococcus aureus [5])	Activity (Staphylococcus aureus [6])	Activity (Staphylococcus aureus [7])	Activity (Staphylococcus aureus [8])
OC[C@H]1O[C@@H](Oc2c[nH]c3ccc(Br)c(Cl)c23)[C@H](O)[C@@H](O)[C@H]1O	inactive	inactive	Active	Active				
CC[C@H]1OC(=O)[C@H](C)[C@@H](O[C@H]2C[C@@](C)(OC)[C@@H](O)[C@H](C)O2)[C@H](C)[C@@H](O[C@@H]2O[C@H](C)C[C@H](N(C)C)[C@H]2O)[C@](C)(O)C[C@@H](C)C(=O)[C@H](C)[C@@H](O)[C@]1(C)O					inactive	Active	inactive	Active
